From patent US8288398B2, “Antiproliferative pyrimidyl, fused pyrimidyl and pyrimidyl hydrazones” (Merck Serono SA, priority 2005, dated 2012)

What was measured:
Format in all cases: cell-based
[1] = test system: Human umbilical vein endothelial cells (HUVEC); test: Endothelial tube formation assay; conditions: 50% reduction in total endothelial tube length, HUVEC on Matrigel, overnight culture
Experimental: Assay 2: Endothelial Tube Formation Assay
Human umbilical vein endothelial cells (HUVEC) (Cascade Biologics #C-003-5C) were plated into 96-well black clear-bottom microplates (Cat. No. 3603, Corning, Inc.) containing 50 uL/well of BD Matrigel Basement Membrane Matrix (BD Biosciences #354234) at 7.5×10^3 cells/well. Inhibitors were serially diluted in 100% DMSO and subsequently added to cells to reach a final concentration of 0.5% DMSO and the plates cultured overnight at 37° C., 5% CO2 in (EGM™-2 MV) (Cambrex #CC-3202). […] Cell plates were incubated in the dark at 37° C., 5% CO2 for 10 minutes and then immediately imaged and quantitated on the Discovery—1 automated microscope (Molecular Devices Corp.) to determine the total endothelial tube length. The total endothelial tube length is calculated using the Angiogenesis image algorithm supplied with the MetaMorph software package (Molecular Devices Corp). […] The binary image is then analyzed to remove objects that are not part of the endothelial tube network, such as cell clumps or debris. Finally, the corrected binary image is processed to reduce the tubes to single pixel width from which the total tube length is calculated. […]

[2] = test system: pancreatic cancer (MiaPaCa-2, human) cells; test: Tumor cell proliferation assay (ATP-lite), MiaPaCa-2; conditions: MIA PaCa-2, 96 h; inhibition of tumor cell growth by 50%; MiaPaCa-2 human pancreatic cancer cells; 4 days incubation; ATP-lite readout
Experimental: (§1) Assay 1: Tumor Cell Proliferation Assay:
(§2) Colon cancer (C26, murine), pancreatic cancer (MiaPaCa-2, human) cells were plated in 96-well white plates (Cat. No. 3917, Corning, Inc.) at 2.5×10^3 cells/well and cultured overnight at 37° C. in 5% CO2 in DMEM containing 10% FCS. Inhibitors were serially diluted in 100% DMSO and subsequently added to cells to reach a final concentration of 0.25% DMSO. Cell plates were incubated for an additional 4 days at 37° C. and 5% CO2 and cell proliferation was quantitated using the ATP-lite cell proliferation kit (Cat. No. 6016943, Perkin Elmer).
(§3) The ATPlite kit quantifies the ATP released from lysed cells by the generation of light caused by the reaction of the released ATP with the Luciferase and D-Luciferin contained in the kit. After the 4th day of incubation, the media is removed from the cell plates and replaced with 100 μL of PBS followed by 50 μL of the lysis solution. The plates are then shaken for 5 minutes on an orbital shaker followed by the addition of 50 μL of substrate solution. The plates are shaken for an additional 5 minutes followed by dark adaptation for 10 minutes and finally read on a Victor^3 V plate reader (1 second/well, Cat. No. 1420-041, Perkin Elmer).
(§4) Columns 2-3 show the concentration of compounds required to inhibit the growth of tumor cells by 50% (IC50 in μM).

[3] = test system: Colon cancer (C26, murine) cells; test: Tumor cell proliferation assay (ATP-lite), C26; conditions: Mus musculus, 96 h, inhibition of tumor cell growth by 50%, 4 days incubation, ATP-lite readout
Experimental: as §1, §2, §3, §4

| IC50 [2] [µM] | IC50 [3] [µM] | SMILES | IC50 [1] [µM] |
| --- | --- | --- | --- |
| < 1 | < 1 | CC(=NN(C)c1nc(C(F)(F)F)nc2ccccc12)c1ccc(C)cc1 [Compound 2] | < 1 |
| < 1 | < 1 | CC(=NN(C)c1nc(C)nc2ccccc12)c1ccc(C)cc1 [Compound 7, N-Methyl-N-(2-methyl-quinazolin-4-yl)-N-(1-p-tolyl-ethylidene)-hydrazine] | < 1 |
| < 1 | 1 to 15 | CC(=NNc1cc(-c2ccccc2N2CCOCC2)nc(C)n1)c1ccc(C)cc1 [Compound 33, N-[2-Methyl-6-(2-morpholin-4-yl-phenyl)-pyrimidin-4-yl]-N′-[1-p-tolyl-ethylidene]-hydrazine] |  |
| < 1 | < 1 | CC(=O)Nc1ccccc1-c1cc(NN=C(C)c2ccc(C)cc2)nc(C)n1 [Compound 34, N-[2-(2-Methyl-6-{N′-[1-p-tolyl-ethylidene]-hydrazino}-pyrimidin-4-yl)-phenyl]-acetamide] |  |
| < 1 | < 1 | CC(=NNc1cc(-c2ccccc2CO)nc(C)n1)c1ccc(C)cc1 [Compound 35, [2-(2-Methyl-6-{N′-[1-p-tolyl-ethylidene]-hydrazino}-pyrimidin-4-yl)-phenyl]-methanol] |  |
| < 1 | < 1 | CC(=NNc1cc(-c2c(C)noc2C)nc(C)n1)c1ccc(C)cc1 [Compound 36, N-[6-(3,5-Dimethyl-isoxazol-4-yl)-2-methyl-pyrimidin-4-yl]-N′-[1-p-tolyl-ethylidene]-hydrazine] |  |
| < 1 | < 1 | CC(=NNc1cc(-c2ccccc2N)nc(C)n1)c1ccc(C)cc1 [Compound 38, 2-(2-Methyl-6-{N′-[1-p-tolyl-ethylidene]-hydrazino}-pyrimidin-4-yl)-phenylamine] |  |
| < 1 | < 1 | CC(=NN(C)c1cc(-c2ccccc2)nc(C)n1)c1ccc(C)cc1 [Compound 39, N-Methyl-N-(2-methyl-6-phenyl-pyrimidin-4-yl)-N′-[1-p-tolyl-ethylidene]-hydrazine] |  |
| < 1 | < 1 | COc1cccc(OC)c1-c1cc(NN=C(C)c2ccc(C)cc2)nc(C)n1 [Compound 40, N-[6-(2,6-Dimethoxy-phenyl)-2-methyl-pyrimidin-4-yl]-N′-[1-p-tolyl-ethylidene]-hydrazine] |  |
| < 1 | < 1 | CC(=NNc1cc(-c2ccccc2)nc(C)n1)c1ccc(C)cc1 [Compound 41, N-(2-Methyl-6-phenyl-pyrimidin-4-yl)-N′-(1-p-tolyl-ethylidene)-hydrazine] |  |
| 1 to 15 | 1 to 15 | CC(=NNc1cc(-c2ccccc2)nc(C)n1)c1ccc(N)cc1 [Compound 42, 4-{1-[(2-Methyl-6-phenyl-pyrimidin-4-yl)-hydrazono]-ethyl}-phenylamine] |  |
